This is an account of results in patent US8592581B2, “Trisubstituted purine derivatives” (Cyclacel Limited, priority 2007, dated 2013).

The target of one data set is CDK2/cyclin E (Homo sapiens (Human), UniProt P24941). Briefly: In-vitro recombinant kinase assay CDK2/cyclin E. It counts as biochemical. To be noted: Table 2; average of duplicate points; read-out: CDK2/Cyclin E Average IC50. Here is the method:
(§1) To evaluate the in-vitro kinase potency of the compounds, they were screened against CDK 2 and CDK9. Kinase assays were performed in 96-well plates using recombinant CDK/cyclins generated at Cyclacel. Ltd Dundee, UK. CDK2 and CDK9 assays were performed in a total volume of 25 μl in assay buffer (25 mM b-glycerophosphate, 20 mM MOPS, 5 mM EGTA, 1 mM DTT and 1 mM NaVO3, pH 7.4), into which were added 2-4 μg of active enzyme with appropriate substrates (purified histone H1 for CDK2/cyclin E, and CDK2/cyclin A, biotinyl-Ahx-(YSPTSPS)4 for CDK9/cyclin T1). […] CDK2 reactions were stopped by addition of 25 μl of 75 mM phosphoric acid, followed by filtration through P81 filterplates (Whatman Polyfiltronics, Kent, UK). For CDK9, the reaction was stopped by addition of 25 μl of 75 mM phosphoric acid, then 5 μl of 10 mg/ml avidin was added to each well and further incubated for 2 min followed by filtration as per CDK2 assay. After washing 3 times with 75 mM orthophosphoric acid, plates were dried, scintillant added and incorporated radioactivity measured in a scintillation counter (TopCount, Packard Instruments, Pangbourne, Berks, UK). Compounds for kinase assay were made up as 10 mM stocks in DMSO and diluted into 10% DMSO in assay buffer.
as §1

In another data set the target is CYP1A (Homo sapiens, UniProt P05177). Briefly: CYP1A inhibition, human liver microsomes, ethoxyresorufin. It counts as in vitro ADME. To be noted: human liver microsomes, probe ethoxyresorufin (0.5 μM), read-out: IC50 (μM) CYP1A. As to the method: Six test compound concentrations (0.05, 0.25, 0.5, 2.5, 5, 25 μM in DMSO; final DMSO concentration=0.35%) were incubated with human liver microsomes (0.25 mg/mL) and NADPH (1 mM) in the presence of the probe substrate ethoxyresorufin (0.5 μM) for 5 min at 37° C. The selective CYP1A inhibitor, alpha-naphthoflavone, was screened alongside the test compounds as a positive control.
(§2) For the CYP1A incubations, the reactions were terminated by the addition of methanol, and the formation of the metabolite, resorufin, was monitored by fluorescence (excitation wavelength=535 nm, emission wavelength=595 nm). For the CYP2C9, CYP2C19, CYP2D6, and CYP3A4 incubations, the reactions were terminated by the addition of methanol containing internal standard. The samples were then centrifuged, and the supernatants were combined, for the simultaneous analysis of 4-hydroxytolbutamide, 4-hydroxymephenyloin, dextrorphan, and 1-hydroxymidazolam plus internal standard by LC-MS/MS using generic LC-MS/MS conditions. Formic acid in deionised water (final concentration=0.1%) was added to the final sample prior to analysis.

Data set [1] has as its target T1, CYP2C9 (Homo sapiens (Human), UniProt P11712). The data set is described as follows: CYP2C9 inhibition, human liver microsomes, tolbutamide. It counts as in vitro ADME. As to the method:
Six test compound concentrations (0.05, 0.25, 0.5, 2.5, 5, 25 μM in DMSO; final DMSO concentration=0.25%) were incubated with human liver microsomes (1 mg/mL) and NADPH (1 mM) in the presence of the probe substrate tolbutamide (120 μM) for 60 min at 37° C. The selective CYP2C9 inhibitor, sulphaphenazole, was screened alongside the test compounds as a positive control.
as §2
Background: Liver microsomes are a subcellular fraction often used to study metabolism.

For data set [2], the target named is T1, CYP2C9. Briefly: Cytochrome P450 substrate identification (Bactosomes) CYP2C9. The class given is in vitro ADME. To be noted: pH 7.4, 5 μM test compound, up to 45 min, read-out: half life in the presence of CYP2C9. As to the method: (§3) cDNA expressed human CYP450 enzyme preparations co-expressed with human NADPH cytochrome P450 reductase (Bactosomes™) were supplied by Cypex Ltd. Bactosomes™ (final P450 concentration CYP1A2 100 pmol/mL, CYP2C8 50 pmol/mL, CYP2C9 25 pmol/mL, CYP2C19 100 pmol/mL, CYP2D6 50 pmol/mL and CYP3A4 25 pmol/mL), 0.1M phosphate buffer pH7.4 and test compound (final substrate concentration=5 μM; final DMSO concentration=0.25%) were pre-incubated at 37° C. prior to the addition of NADPH (final concentration=1 mM) to initiate the reaction. Incubations were also performed using control bactosomes (no P450 enzymes present) to reveal any non-enzymatic degradation. The final incubation volume was 25 μL. Compounds known to be metabolised specifically by each CYP450 isoform were used as control compounds.
(§4) Each compound was incubated singly for 0, 5, 15, 30 and 45 min with each CYP isoform. The reactions were stopped by the addition of 50 μL methanol containing internal standard at the appropriate time points. The incubation plates were centrifuged at 2500 rpm for 20 min at 4° C. to precipitate the protein. Following protein precipitation, the sample supernatants were combined in cassettes of up to four compounds and analysed using generic LC-MS/MS conditions.
(§5) The In peak area ratio (which has been corrected for any loss in the incubations with the control bactosomes) was plotted against time and the gradient of the line determined.
(§6) The elimination rate constant (k)=(−gradient)

For the next data set, the target named is CYP2D6 (Homo sapiens (Human), UniProt P10635). Briefly: Cytochrome P450 substrate identification (Bactosomes) CYP2D6. It counts as in vitro ADME. To be noted: pH 7.4, 5 μM test compound, up to 45 min, read-out: half life in the presence of CYP2D6. As to the method:
as §3, §4, §5, §6

The next data set deals with CYP3A4 (Homo sapiens (Human), UniProt P08684). Briefly: Cytochrome P450 substrate identification (Bactosomes) CYP3A4. The class given is in vitro ADME. Here is the method: as §3, §4, §5, §6
A further data set relates to MDA-MB-436. Briefly: Alamar blue cytotoxicity assay MDA-MB-436. It counts as cell-based. To be noted: Homo sapiens, 72 hours, read-out: cellular cytotoxicity IC50 MDA-MB-436. Here is the method: (§7) In order to determine the cellular potency of the compounds, the cytotoxicity of each compound was determined against a range of cell lines. Standard cytotoxicity methods were performed as follows: cells were seeded in 96-well plates appropriately for their doubling time (2-5000 cells per well) in RPMI or DMEM media containing 10% FCS and incubated overnight at 37° C., 5% CO2. The media was removed and 100 μl fresh media containing increasing concentrations of appropriate compound was added and the cells incubated for 72 hours at 37° C., 5% CO2. A 10% stock of alamar blue (Roche, Lewes, United Kingdom) was prepared in medium and 100 μl added to the cells which were incubated for 2 hours. Absorbance was measured on the Wallac Victor 2 1420 multi-label counter at 544-595 nm.

The subject of a further data set is H2052. The data set is described as follows: Alamar blue cytotoxicity assay H2052. It counts as cell-based. To be noted: Homo sapiens, NCI-H2052; 72 hours; read-out: cellular cytotoxicity IC50 H2052. Here is the method:
as §7

The test system of another data set is LoVo. Briefly: Alamar blue cytotoxicity assay LoVo. The class given is cell-based. To be noted: Homo sapiens, 72 hours, read-out: cellular cytotoxicity IC50 LoVo. Here is the method: as §7
For orientation: The colour change of resazurin is a common sign of viable cells or microbes.

Another data set deals with H292. Briefly: Alamar blue cytotoxicity assay H292. It counts as cell-based. To be noted: Homo sapiens, NCI-H292; 72 hours; read-out: cellular cytotoxicity IC50 H292. Here is the method:
as §7

T1 sequence (P11712 whole entry): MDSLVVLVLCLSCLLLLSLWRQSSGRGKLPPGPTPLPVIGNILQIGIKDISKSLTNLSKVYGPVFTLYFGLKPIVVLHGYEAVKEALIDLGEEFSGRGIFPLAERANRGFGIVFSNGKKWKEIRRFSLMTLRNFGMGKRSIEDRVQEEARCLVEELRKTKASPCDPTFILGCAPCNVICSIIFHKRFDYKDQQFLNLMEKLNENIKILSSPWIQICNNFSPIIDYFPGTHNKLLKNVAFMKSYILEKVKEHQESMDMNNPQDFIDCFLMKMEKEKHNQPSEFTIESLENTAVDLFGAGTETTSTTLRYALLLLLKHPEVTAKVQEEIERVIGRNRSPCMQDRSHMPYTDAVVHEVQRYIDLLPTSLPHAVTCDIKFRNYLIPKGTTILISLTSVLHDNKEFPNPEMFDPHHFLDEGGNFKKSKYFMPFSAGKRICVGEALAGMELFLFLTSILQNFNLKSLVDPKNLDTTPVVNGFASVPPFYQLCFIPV
Sequence of CYP3A4 (P08684 whole entry): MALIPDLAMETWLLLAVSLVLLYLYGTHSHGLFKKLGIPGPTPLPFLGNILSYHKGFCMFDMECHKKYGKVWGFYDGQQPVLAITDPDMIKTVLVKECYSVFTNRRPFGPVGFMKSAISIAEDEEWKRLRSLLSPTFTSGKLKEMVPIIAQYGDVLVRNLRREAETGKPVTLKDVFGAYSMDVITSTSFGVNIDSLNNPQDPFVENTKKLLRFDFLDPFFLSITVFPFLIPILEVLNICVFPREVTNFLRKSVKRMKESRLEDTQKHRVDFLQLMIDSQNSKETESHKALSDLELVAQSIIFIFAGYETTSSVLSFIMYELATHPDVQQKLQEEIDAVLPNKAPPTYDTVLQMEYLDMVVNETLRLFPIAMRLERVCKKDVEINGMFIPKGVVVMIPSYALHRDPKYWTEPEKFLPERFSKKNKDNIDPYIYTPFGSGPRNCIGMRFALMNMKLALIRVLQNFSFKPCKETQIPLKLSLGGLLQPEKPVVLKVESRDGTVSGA
Sequence of CYP1A (P05177 2-516 limits assumed): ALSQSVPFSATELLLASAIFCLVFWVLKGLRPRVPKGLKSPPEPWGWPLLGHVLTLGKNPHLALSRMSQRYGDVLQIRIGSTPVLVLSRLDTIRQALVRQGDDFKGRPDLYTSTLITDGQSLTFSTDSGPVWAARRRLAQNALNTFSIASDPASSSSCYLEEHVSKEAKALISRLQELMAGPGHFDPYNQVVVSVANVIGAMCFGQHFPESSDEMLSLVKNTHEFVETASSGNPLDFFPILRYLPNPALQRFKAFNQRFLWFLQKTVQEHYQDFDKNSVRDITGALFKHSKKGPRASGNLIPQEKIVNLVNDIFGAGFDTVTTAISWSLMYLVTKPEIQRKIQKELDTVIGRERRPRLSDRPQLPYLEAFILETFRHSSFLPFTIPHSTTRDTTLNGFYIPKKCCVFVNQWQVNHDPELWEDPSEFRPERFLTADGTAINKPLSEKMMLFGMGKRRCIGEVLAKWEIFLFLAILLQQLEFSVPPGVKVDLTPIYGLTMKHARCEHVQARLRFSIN
Sequence of CYP2D6 (P10635 whole entry): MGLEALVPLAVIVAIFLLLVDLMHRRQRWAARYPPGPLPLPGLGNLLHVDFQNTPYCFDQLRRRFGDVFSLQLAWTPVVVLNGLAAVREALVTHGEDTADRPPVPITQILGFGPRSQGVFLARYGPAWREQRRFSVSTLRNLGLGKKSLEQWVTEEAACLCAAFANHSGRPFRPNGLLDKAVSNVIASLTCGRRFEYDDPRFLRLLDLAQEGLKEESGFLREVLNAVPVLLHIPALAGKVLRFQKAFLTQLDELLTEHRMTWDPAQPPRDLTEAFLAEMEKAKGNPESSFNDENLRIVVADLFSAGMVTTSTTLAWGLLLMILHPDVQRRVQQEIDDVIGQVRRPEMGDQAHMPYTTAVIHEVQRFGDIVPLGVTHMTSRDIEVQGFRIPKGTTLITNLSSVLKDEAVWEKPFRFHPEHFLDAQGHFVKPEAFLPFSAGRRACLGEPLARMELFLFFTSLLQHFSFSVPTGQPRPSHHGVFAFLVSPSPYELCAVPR

As usually defined, the half-life is the time in which the quantity being followed falls by half. As to `CC[C@H](Nc1nc(NCc2cnc(C)cc2C)c2ncn(C(C)C)c2n1)[C@@H](C)O` [Compound [1]], the IC50 on CDK2/cyclin E is 20 nM; on CYP2C9 [1], 23.8 µM; in the data set with MDA-MB-436, 440 nM; with H2052, 290 nM; with LoVo, 700 nM; in the data set with H292 it was 370 nM. For the same molecule, the IC50 at 5 min on CYP1A is more than 25 µM. Further, the half-life at 5 μM is more than 45 min at CYP2C9 [2]; more than 45 min on CYP2D6; more than 45 min on CYP3A4 (human, pH 7.4, Bactosomes, 5 μM test compound, up to 45 min, read-out: half life in the presence of CYP3A4). Besides, the “substrate of CYP3A4 (in words)” value on CYP3A4 (Bactosomes system) is given as “neither a substrate of nor inhibitor of CYP3A4”.
